Source: patent publication US8846951B2 (AbbVie Inc., priority 2009, dated 2014)
Like-named read-outs stand apart in the source and are kept apart here.

What was measured:
5HT2B receptors = molecular target: T1, 5HT2B receptors (Homo sapiens, UniProt P41595); assay: Human 5-HT2B functional high throughput screening assay in CHO-K1 cells (calcium flux); format: cell-based; settings: for EC50: CHO-K1 cells, calcium flux
T1 construct: expressed in transfected cells; host or cells: CHO-K1 cells
Description: (§1) (iii) Human 5-HT2C and 5-HT2B Functional High Throughput Screening Assays in CHO-K1 Cells
(§2) CHO-K1 cells over-expressing 5HT2C or 5HT2B receptors were grown in 1272 cm^2 flasks to 70-80% confluency in UltraCHO media (Lonza, Walkersville, Md.) supplemented with 1% dialyzed fetal bovine serum (FBS), 250 μg/mL zeocin, 100 U/mL penicillin and 100 μg/mL streptomycin, and 400 μg/mL geneticin. The cells were dissociated from the flasks using 0.05% trypsin, resuspended in Recovery™ cell culture freezing medium (Invitrogen, Carlsbad, Calif.) and stored in liquid nitrogen until use. The calcium flux experiments were done using frozen cells. The cells were diluted in media containing 1% dialyzed FBS and 100 U/mL penicillin and 100 μg/mL streptomycin and plated into 384-well poly-D-Lysine coated plates (15,000 cells/well). Then the plates were incubated overnight in a cell incubator at 37° C., 5% CO2. On the next day, the growth media was replaced with media without FBS and further incubated overnight. On day three, the changes in intracellular Ca^2+ were determined using calcium sensitive fluorescent dye, Ca4 (MDS Analytical Technologies, Sunnyvale, Calif.) by loading 15 μL of diluted dye in Hank's Balanced Salt Solution and 20 mM Hepes buffer (pH 7.4) with final concentration of 2.5 mM probenecid into the cells containing media. Then the cells were incubated at room temperature for 60 minutes in dark.
(§3) After incubation, the cell plates were transferred to FLIPR™ (MDS) and their fluorescence measurements were read at an excitation wavelength of 480 nm and an emission wavelength of 530 nm at 25° C. The baseline fluorescence was measured for the first 10 seconds and then 15 μL of 4× concentration of serotonin/test compound was added to the cells. The fluorescence intensity was captured every second for the first 1 minute followed by every 5 seconds for an additional 2 minutes. The increase in fluorescent response by a test compound was normalized to the response of serotonin and used to determine agonist activity. The concentration response of compounds was done from a starting concentration of 10 μM, 1:10 dilution across 6 wells with a final dimethyl sulfoxide concentration of 0.2% and was fitted using a 4-parameter logistic equation. The concentration at which a compound exerts half its maximal effect was named as ‘effective concentration 50’ or ‘EC50’. Emax is the maximum functional response or efficacy expressed as a percentage relative to the effect of serotonin.

5HT2C receptors = molecular target: T2, 5HT2C receptors (Homo sapiens, UniProt P28335); assay: Human 5-HT2C functional high throughput screening assay in CHO-K1 cells (calcium flux); format: cell-based; design: expressed in transfected cells; host or cells: CHO-K1 cells; settings: for EC50: CHO-K1 cells, calcium flux; for Emax: CHO-K1, 5-HT2C, maximum functional response as percentage relative to the effect of serotonin
T2 sequence (P28335 33-458): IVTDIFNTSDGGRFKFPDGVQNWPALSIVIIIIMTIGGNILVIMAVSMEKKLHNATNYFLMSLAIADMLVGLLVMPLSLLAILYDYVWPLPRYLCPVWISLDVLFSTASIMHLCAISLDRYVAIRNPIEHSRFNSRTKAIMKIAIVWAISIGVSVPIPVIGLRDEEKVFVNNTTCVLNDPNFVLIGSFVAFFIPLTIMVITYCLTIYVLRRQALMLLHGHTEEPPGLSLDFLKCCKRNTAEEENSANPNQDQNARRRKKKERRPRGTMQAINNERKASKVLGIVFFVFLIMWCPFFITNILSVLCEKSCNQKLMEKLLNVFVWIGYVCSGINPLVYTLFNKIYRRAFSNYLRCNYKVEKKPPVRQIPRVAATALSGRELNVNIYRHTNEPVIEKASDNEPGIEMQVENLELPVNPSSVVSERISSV
Description: as §1, §2, §3

[1] = 5-HT2B agonist activity, read-out: EC50
[2] = 5-HT2B, maximum functional response as percentage relative to the effect of serotonin
[3] = 5-HT2C agonist activity, read-out: EC50

T1 sequence (P41595 whole entry): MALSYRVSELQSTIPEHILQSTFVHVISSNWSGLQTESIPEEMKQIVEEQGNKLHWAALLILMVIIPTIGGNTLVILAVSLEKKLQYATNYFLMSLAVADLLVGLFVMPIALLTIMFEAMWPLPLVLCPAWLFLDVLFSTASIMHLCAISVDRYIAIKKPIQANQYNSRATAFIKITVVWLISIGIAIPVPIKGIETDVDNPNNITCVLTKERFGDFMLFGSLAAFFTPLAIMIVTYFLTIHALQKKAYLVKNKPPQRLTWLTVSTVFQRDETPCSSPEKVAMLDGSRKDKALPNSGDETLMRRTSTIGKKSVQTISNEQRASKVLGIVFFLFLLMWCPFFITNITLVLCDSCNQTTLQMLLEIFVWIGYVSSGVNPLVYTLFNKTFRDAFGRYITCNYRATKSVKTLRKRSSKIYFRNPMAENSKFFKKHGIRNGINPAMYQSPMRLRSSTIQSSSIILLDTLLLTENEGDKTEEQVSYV

Row | Structure (SMILES) | EC50 (5HT2B receptors; [1]) [µM] | Emax (5HT2B receptors; [2]) | EC50 (5HT2C receptors; [3]) [nM] | Emax (5HT2C receptors) [%] | Emax (5HT2C receptors; read-out: Emax) [%] | Emax (5HT2B receptors; CHO-K1) [%] | EC50 (5HT2B receptors; EC50, 5-HT2B agonist activity) [µM] | EC50 (5HT2C receptors; EC50, 5-HT2C agonist activity) [nM] | Emax (5HT2B receptors; CHO-K1, 5-HT2B, maximum functional response as percentage relative to the effect of serotonin, read-out: Emax) [%]
1 | c1cc(-c2ccncc2)c2c(c1)[C@H]1CNC[C@@H]1CCO2 (relative stereo) [Example 369, Trans-7-(pyridin-4-yl)-2,3,3a,4,5,10b-hexahydro-1H-[1]benzoxepino[4,5-c]pyrrole] | > 10 | inactive | 300 | 90 | – | – | – | – | –
2 | CN1C[C@H]2CNC(=O)c3cc(-c4ccc(S(C)(=O)=O)cc4)ccc3[C@@H]2C1 (relative stereo) [Example 83, Trans-2-methyl-8-(4-(methylsulfonyl)phenyl)-1,2,3,3a,4,5-hexahydrobenzo[e]pyrrolo[3,4-c]azepin-6(10bH)-one] | > 10 | inactive | 200 | – | > 120 | – | – | – | –
3 | CN1C[C@H]2CNC(=O)c3cc(-c4cccc(S(C)(=O)=O)c4)ccc3[C@@H]2C1 (relative stereo) [Example 84, Trans-2-methyl-8-(3-(methylsulfonyl)phenyl)-1,2,3,3a,4,5-hexahydrobenzo[e]pyrrolo[3,4-c]azepin-6(10bH)-one] | > 10 | inactive | – | – | > 120 | – | – | – | –
4 | COc1ccc2c(c1)C(=O)NC[C@@H]1CNC[C@H]21 (relative stereo) [Example 135, Cis-8-methoxy-1,2,3,3a,4,5-hexahydrobenzo[e]pyrrolo[3,4-c]azepin-6(10bH)-one] | > 10 | inactive | 800 | > 120 | – | – | – | – | –
5 | Brc1ccc2c(c1)[C@@H]1CNC[C@H]1CCN2 (relative stereo) [Example 396, Trans-9-bromo-1,2,3,3a,4,5,6,10b-octahydropyrrolo[3,4-d][1]benzazepine] | – | – | – | 90 | – | 60 | 0.006 | 30 | –
6 | CN(C)C(=O)c1cccc(-c2ccc3c(c2)C(=O)NC[C@@H]2CNC[C@@H]32)c1 (relative stereo) [Example 230, N,N-Dimethyl-3-(trans-6-oxo-1,2,3,3a,4,5,6,10b-octahydrobenzo[c]pyrrolo[3,4-e]azepin-8-yl)benzamide] | > 10 | inactive | 80 | – | > 120 | – | – | – | –
7 | C[C@H](Oc1ccc2c(c1)C(=O)NC[C@@H]1CNC[C@@H]21)c1ccccc1 (mixture of isomers) [Example 155, Trans-8-((S)-1-phenylethoxy)-1,2,3,3a,4,5-hexahydrobenzo[e]pyrrolo[3,4-c]azepin-6(10bH)-one] | – | inactive | – | > 120 | – | – | > 10 | 50 | –
8 | CN1C[C@@H]2CCOc3ccc(Cl)cc3[C@H]2C1 [Example 234, (3aR,10bS)-9-Chloro-2-methyl-2,3,3a,4,5,10b-hexahydro-1H-[1]benzoxepino[4,5-c]pyrrole] | – | – | – | > 120 | – | 70 | 0.01 | 10 | –
9 | CN1C[C@H]2CNC(=O)c3cc(OCc4ccccc4F)ccc3[C@@H]2C1 (relative stereo) [Example 164, Trans-8-(2-fluorobenzyloxy)-2-methyl-1,2,3,3a,4,5-hexahydrobenzo[e]pyrrolo[3,4-c]azepin-6(10bH)-one] | > 10 | inactive | 700 | – | 50 | – | – | – | –
10 | CN1C[C@H]2CCN(C)c3ccccc3[C@@H]2C1 (relative stereo) [Example 330, Trans-2,6-dimethyl-1,2,3,3a,4,5,6,10b-octahydropyrrolo[3,4-d][1]benzazepine] | – | – | – | 90 | – | 30 | 0.3 | 70 | –
11 | COc1ccc(C(C)C)cc1-c1ccc2c(c1)C(=O)NC[C@@H]1CN(C)C[C@@H]21 (relative stereo) [Example 301, Trans-8-(5-isopropyl-2-methoxyphenyl)-2-methyl-2,3,3a,4,5,10b-hexahydropyrrolo[3,4-d][2]benzazepin-6(1H)-one] | > 10 | inactive | 30 | – | 105 | – | – | – | –
12 | O=S(=O)(c1cccc(C(F)(F)F)c1)N1Cc2cccnc2[C@@H]2CNC[C@H]2C1 (relative stereo) [Example 345, Trans-6-{[3-(trifluoromethyl)phenyl]sulfonyl}-5,6,7,7a,8,9,10,10a-octahydropyrido[3,2-c]pyrrolo[3,4-e]azepine] | 0.2 | – | 400 | – | 80 | – | – | – | 90
13 | CN1C[C@H]2CCOc3ncccc3[C@@H]2C1 (relative stereo) [Example 268, Trans-2-methyl-2,3,3a,4,5,10b-hexahydro-1H-pyrrolo[3′,4′:4,5]oxepino[2,3-b]pyridine] | > 10 | inactive | 7000 | 70 | – | – | – | – | –
14 | O=C1NC[C@@H]2CNC[C@H]2c2cccc(OC(F)(F)F)c21 (relative stereo) [Example 103, Trans-7-(trifluoromethoxy)-1,2,3,3a,4,5-hexahydrobenzo[c]pyrrolo[3,4-e]azepin-6(10bH)-one] | – | – | – | > 120 | – | 110 | 0.08 | 0.7 | –
15 | COC(=O)c1ccc2c(c1)C(=O)NC[C@@H]1CN(C)C[C@@H]21 (relative stereo) [Example 88, Trans-methyl 2-methyl-6-oxo-1,2,3,3a,4,5,6,10b-octahydrobenzo[e]pyrrolo[3,4-c]azepine-8-carboxylate] | > 10 | inactive | 500 | – | > 120 | – | – | – | –
16 | CN1C[C@H]2CNC(=O)c3cc(Oc4ccc(F)cc4)ccc3[C@@H]2C1 (relative stereo) [Example 243, Trans-8-(4-fluorophenoxy)-2-methyl-1,2,3,3a,4,5-hexahydrobenzo[c]pyrrolo[3,4-e]azepin-6(10bH)-one] | > 10 | inactive | 60 | – | > 120 | – | – | – | –
17 | O=C1NC[C@@H]2CNC[C@H]2c2ncccc21 (relative stereo) [Example 153, Trans-7,7a,8,9,10,10a-hexahydropyrido[2,3-e]pyrrolo[3,4-c]azepin-5(6H)-one] | – | – | – | > 120 | – | 30 | > 10 | 80 | –
18 | CN1C[C@@H]2CNC(=O)c3cc(-c4ccccn4)ccc3[C@H]2C1 [Example 388, (3aS,10bS)-2-Methyl-8-(pyridin-2-yl)-2,3,3a,4,5,10b-hexahydropyrrolo[3,4-d][2]benzazepin-6(1H)-one] | > 10 | inactive | 300 | 90 | – | – | – | – | –
19 | COc1cccc(-c2ccc3c(c2)C(=O)NC[C@H]2CN(C)C[C@H]32)c1 [Example 160, (3aS,10bS)-8-(3-Methoxyphenyl)-2-methyl-1,2,3,3a,4,5-hexahydrobenzo[e]pyrrolo[3,4-c]azepin-6(10bH)-one] | > 10 | inactive | 0.8 | – | > 120 | – | – | – | –
20 | CN1C[C@H]2CN(C)C(=O)c3cc(-c4cccc(CCO)c4)ccc3[C@@H]2C1 (relative stereo) [Example 192, Trans-8-(3-(2-hydroxyethyl)phenyl)-2,5-dimethyl-1,2,3,3a,4,5-hexahydrobenzo[e]pyrrolo[3,4-c]azepin-6(10bH)-one] | > 10 | inactive | 8 | – | 120 | – | – | – | –
